Calls of active or inactive are those of the source. No cut-off for these calls is given here.
Experiments:
[1] = target: Metabotropic glutamate receptor 5 (Rattus norvegicus) (UniProt P31424); assay: Ago-positive allosteric modulation of rat mGlu5 receptor expressed in HEK293 cells by fluorescence-based calcium flux assay relative to glutamate; format: functional, cell-based
Plasma [2] = assay: (§1) Fraction unbound in rat plasma at 5 uM after 4 hrs by equilibrium dialysis method; format: ADME, cell-free; conditions: 4 h, 5 µM
Liver microsomes = assay: Metabolic stability in rat liver microsomes assessed as compound remaining at 1 uM after 15 mins in presence of NADPH; format: ADME, Microsome; conditions: 0.25 h
Plasma [3] = assay: (§2) Fraction unbound in human plasma at 5 uM after 4 hrs by equilibrium dialysis method; format: ADME, cell-free; conditions: 4 h, 5 µM
[4] = target: T1, Metabotropic glutamate receptor 5 (Rattus norvegicus, UniProt P31424); assay: Ago-positive allosteric modulation of rat mGlu5 receptor expressed in HEK293 cells by fluorescence-based calcium flux assay; format: functional, cell-based
HEK293 = assay: Selectivity ratio of EC50 for human mGlu5 receptor expressed in HEK293 cells to EC50 for rat mGlu5 receptor expressed in HEK293 cells; format: cell-based
[5] = target: Metabotropic glutamate receptor 5 (Rattus norvegicus) (UniProt P31424); assay: Displacement of [3H]-methoxyPEPy from rat mGlu5 receptor expressed in HEK293 cells up to 30 uM after 1 hr by scintillation counting analysis; format: cell-based
[6] = target: T2, Metabotropic glutamate receptor 5 (Homo sapiens, UniProt P41594); assay: Positive allosteric modulation of human mGlu5 receptor expressed in HEK293 cells by fluorescence-based calcium flux assay; format: functional, cell-based
[7] = target: T2, Metabotropic glutamate receptor 5; assay: Positive allosteric modulation of human mGlu5 receptor expressed in HEK293 cells by fluorescence-based calcium flux assay relative to glutamate; format: functional, cell-based
[8] = target: Metabotropic glutamate receptor 7 (Homo sapiens) (UniProt Q14831); assay: Positive allosteric modulation of mGluR7
[9] = target: Metabotropic glutamate receptor 4 (Homo sapiens) (UniProt Q14833); assay: Positive allosteric modulation of mGluR4
[10] = target: Metabotropic glutamate receptor 6 (Homo sapiens) (UniProt O15303); assay: Positive allosteric modulation of mGluR6
[11] = target: Metabotropic glutamate receptor 1 (Homo sapiens) (UniProt Q13255); assay: Positive allosteric modulation of mGluR1
[12] = target: Metabotropic glutamate receptor 2 (Homo sapiens) (UniProt Q14416); assay: Positive allosteric modulation of mGluR2
[13] = target: T1, Metabotropic glutamate receptor 5; assay: Displacement of [3H]-methoxyPEPy from rat mGlu5 receptor expressed in HEK293 cells after 1 hr by scintillation counting analysis; format: cell-based
[14] = target: Metabotropic glutamate receptor 3 (Homo sapiens) (UniProt Q14832); assay: Positive allosteric modulation of mGluR3
[15] = target: Metabotropic glutamate receptor 8 (Homo sapiens) (UniProt O00222); assay: Positive allosteric modulation of mGluR8
[16] = as §1; format: ADME, cell-free
[17] = target: Voltage-gated inwardly rectifying potassium channel KCNH2 (Homo sapiens, UniProt Q12809); assay: Inhibition of human ERG
[18] = Inhibition of sodium channel
[19] = Ratio of AUC in Sprague-Dawley rat brain at 10 mg/kg, ip to AUC in Sprague-Dawley rat plasma at 10 mg/kg, ip; format: ADME, organism-based; conditions: brain and plasma, read-out: Ratio AUC
[20] = as §2; format: ADME, cell-free
[21] = Inhibition of calcium channel

Sequence of Metabotropic glutamate receptor 7 (Homo sapiens) (Q14831 whole entry): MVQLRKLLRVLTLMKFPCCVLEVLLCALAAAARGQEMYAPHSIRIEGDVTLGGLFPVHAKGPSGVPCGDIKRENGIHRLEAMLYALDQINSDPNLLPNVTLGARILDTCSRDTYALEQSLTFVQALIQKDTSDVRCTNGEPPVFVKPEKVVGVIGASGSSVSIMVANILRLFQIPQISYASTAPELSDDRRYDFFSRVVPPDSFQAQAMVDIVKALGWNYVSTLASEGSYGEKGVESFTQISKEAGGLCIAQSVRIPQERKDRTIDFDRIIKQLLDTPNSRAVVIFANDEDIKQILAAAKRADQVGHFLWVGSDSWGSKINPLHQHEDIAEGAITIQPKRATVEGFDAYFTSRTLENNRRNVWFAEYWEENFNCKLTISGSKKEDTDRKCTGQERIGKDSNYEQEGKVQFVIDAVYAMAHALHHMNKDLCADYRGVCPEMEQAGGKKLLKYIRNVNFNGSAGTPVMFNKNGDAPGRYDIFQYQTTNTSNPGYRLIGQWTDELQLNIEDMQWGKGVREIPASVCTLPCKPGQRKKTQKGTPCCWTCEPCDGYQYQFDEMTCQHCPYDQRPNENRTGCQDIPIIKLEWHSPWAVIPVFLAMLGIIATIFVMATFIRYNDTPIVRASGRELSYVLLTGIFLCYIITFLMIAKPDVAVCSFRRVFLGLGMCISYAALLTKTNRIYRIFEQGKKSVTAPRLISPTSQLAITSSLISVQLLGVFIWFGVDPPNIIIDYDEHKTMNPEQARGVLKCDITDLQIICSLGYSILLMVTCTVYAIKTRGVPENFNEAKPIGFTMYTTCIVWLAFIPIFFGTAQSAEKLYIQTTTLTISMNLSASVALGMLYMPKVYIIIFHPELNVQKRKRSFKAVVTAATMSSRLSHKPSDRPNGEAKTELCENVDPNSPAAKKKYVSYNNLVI
Sequence of Metabotropic glutamate receptor 2 (Homo sapiens) (Q14416 19-872 limits assumed): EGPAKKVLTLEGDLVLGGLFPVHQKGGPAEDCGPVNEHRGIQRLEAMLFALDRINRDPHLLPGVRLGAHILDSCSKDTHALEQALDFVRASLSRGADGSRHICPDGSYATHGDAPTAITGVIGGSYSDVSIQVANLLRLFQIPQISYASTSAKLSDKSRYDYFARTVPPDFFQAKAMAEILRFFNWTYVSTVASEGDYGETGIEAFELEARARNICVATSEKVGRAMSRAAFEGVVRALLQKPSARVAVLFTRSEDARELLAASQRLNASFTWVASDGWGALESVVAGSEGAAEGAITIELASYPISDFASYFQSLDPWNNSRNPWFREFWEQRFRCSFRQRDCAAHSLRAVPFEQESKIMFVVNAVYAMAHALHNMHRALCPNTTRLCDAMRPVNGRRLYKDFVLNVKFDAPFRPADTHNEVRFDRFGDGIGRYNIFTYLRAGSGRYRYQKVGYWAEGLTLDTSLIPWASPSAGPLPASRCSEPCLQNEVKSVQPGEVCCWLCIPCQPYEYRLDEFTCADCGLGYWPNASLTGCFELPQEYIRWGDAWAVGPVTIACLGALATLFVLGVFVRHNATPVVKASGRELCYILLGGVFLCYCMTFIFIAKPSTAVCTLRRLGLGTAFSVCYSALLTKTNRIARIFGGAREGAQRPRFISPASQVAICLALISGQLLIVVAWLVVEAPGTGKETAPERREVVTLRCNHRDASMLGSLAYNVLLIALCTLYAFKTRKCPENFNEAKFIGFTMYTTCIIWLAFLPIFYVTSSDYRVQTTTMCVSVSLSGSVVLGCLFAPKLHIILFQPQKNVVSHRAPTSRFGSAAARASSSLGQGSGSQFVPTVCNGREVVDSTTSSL
Sequence of Metabotropic glutamate receptor 1 (Homo sapiens) (Q13255 19-1194 limits assumed): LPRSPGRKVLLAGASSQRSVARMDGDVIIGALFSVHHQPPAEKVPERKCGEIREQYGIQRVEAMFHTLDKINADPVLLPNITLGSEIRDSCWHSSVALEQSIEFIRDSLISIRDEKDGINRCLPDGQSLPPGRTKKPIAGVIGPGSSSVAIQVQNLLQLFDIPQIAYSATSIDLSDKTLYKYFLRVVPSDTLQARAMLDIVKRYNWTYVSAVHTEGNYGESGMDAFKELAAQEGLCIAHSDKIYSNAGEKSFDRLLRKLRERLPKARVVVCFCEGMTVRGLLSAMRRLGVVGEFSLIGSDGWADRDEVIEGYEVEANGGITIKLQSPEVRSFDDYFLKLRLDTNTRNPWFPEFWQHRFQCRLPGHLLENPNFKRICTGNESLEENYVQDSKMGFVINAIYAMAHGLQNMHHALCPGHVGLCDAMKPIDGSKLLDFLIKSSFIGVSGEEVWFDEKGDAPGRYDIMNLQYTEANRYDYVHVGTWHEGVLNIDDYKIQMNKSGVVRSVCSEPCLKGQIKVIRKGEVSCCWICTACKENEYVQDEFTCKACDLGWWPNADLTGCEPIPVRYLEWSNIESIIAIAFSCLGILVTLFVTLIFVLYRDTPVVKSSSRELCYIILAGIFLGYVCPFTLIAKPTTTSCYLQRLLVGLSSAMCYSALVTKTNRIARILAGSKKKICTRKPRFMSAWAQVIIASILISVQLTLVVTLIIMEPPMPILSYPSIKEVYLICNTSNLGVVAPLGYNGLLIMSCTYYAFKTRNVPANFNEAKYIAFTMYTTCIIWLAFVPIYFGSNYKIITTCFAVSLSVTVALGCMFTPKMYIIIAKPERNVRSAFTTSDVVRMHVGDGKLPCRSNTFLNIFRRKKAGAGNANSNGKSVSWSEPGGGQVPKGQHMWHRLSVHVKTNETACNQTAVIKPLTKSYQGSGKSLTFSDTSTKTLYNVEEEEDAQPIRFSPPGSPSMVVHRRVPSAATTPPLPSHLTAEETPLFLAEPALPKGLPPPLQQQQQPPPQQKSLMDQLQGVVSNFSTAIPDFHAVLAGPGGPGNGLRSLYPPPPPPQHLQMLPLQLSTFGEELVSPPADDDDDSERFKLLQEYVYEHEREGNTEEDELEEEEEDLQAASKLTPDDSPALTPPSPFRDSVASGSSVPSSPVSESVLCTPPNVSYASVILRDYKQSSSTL
Sequence of Metabotropic glutamate receptor 3 (Homo sapiens) (Q14832 23-879 limits assumed): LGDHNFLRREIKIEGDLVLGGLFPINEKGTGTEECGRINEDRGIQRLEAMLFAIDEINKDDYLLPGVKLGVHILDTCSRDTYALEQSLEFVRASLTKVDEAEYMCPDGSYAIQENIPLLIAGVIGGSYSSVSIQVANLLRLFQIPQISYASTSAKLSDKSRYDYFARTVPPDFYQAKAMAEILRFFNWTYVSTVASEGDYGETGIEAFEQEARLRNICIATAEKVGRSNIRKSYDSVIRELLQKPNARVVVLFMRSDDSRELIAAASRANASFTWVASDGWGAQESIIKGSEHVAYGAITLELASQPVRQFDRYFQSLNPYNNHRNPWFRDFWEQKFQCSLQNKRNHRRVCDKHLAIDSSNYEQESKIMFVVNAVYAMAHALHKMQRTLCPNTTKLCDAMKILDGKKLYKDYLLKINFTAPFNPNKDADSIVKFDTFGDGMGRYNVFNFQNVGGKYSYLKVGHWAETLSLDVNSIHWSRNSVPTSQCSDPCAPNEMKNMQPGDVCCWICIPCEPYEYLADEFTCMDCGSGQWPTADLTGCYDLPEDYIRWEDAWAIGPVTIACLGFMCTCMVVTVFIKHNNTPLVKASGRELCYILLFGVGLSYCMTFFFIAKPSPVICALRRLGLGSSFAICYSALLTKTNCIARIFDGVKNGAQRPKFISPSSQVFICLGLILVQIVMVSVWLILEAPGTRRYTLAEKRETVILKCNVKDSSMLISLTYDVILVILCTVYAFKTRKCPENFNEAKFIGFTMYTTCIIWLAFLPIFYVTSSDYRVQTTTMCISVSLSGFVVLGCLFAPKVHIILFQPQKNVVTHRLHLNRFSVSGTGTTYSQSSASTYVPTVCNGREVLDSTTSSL
Sequence of Metabotropic glutamate receptor 5 (Rattus norvegicus) (P31424 21-1203 limits assumed): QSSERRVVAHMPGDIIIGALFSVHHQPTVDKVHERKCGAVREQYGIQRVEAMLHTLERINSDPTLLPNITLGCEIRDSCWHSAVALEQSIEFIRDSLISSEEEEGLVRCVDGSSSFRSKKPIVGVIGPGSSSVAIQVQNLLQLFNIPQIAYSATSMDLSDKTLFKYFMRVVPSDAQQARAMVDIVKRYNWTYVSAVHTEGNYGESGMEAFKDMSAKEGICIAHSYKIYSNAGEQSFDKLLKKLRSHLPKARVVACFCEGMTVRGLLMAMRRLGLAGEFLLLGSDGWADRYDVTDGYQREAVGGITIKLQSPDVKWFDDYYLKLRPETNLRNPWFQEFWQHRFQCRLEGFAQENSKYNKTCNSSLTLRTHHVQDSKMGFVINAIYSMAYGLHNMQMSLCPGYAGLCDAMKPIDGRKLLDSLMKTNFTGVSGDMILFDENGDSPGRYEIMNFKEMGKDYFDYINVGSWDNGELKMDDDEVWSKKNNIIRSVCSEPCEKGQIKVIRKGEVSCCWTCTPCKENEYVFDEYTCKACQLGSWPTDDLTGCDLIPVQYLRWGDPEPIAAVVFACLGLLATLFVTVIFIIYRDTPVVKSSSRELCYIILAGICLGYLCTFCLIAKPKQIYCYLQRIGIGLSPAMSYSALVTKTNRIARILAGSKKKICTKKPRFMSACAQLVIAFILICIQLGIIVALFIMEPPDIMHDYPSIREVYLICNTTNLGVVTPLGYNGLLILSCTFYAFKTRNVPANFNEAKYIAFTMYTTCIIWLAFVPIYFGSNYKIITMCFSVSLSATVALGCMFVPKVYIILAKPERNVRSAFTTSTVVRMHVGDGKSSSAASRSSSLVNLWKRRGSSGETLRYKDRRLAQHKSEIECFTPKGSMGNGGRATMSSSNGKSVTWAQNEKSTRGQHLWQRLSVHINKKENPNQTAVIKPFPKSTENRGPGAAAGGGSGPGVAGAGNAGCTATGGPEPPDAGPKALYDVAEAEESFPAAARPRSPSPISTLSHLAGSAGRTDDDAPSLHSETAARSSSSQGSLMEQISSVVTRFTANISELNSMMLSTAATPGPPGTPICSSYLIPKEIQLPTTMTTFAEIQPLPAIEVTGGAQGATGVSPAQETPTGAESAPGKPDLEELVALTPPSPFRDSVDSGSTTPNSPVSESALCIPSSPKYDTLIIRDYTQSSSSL

Row | SMILES | Emax [1] [%] | EC50 [4] [µM] | EC50 ([6]; read-out: EC50) [µM] | Emax [7] [%] | also measured
1 | CS(=O)(=O)N(CC(=O)Nc1ccc(F)cn1)c1ccccc1Cl | 66 | 3.72 |  |  | Fu (Plasma [2]): 0.17; Stability (Liver microsomes): 39%; Fu (Plasma [3]): 0.09
2 | CCS(=O)(=O)N1c2ccccc2CC[C@H]1C(=O)Nc1cccc(Cl)c1 | 74 | 2.5 |  |  | 
3 | Cn1cnc(S(=O)(=O)N2c3ccccc3CCC2C(=O)Nc2cccc(Cl)c2)c1 (racemic) | 75 | > 10 |  |  | 
4 | O=C(Nc1ccc(Cl)cc1CN1C(=O)c2ccccc2C1=O)c1ccccc1O |  |  |  |  | Ratio EC50 (HEK293): 3
5 | CS(=O)(=O)N1c2ccccc2CCC1C(=O)Nc1ccccn1 (racemic) | 68 | 1.3 |  |  | 
6 | CCC(C(=O)Nc1cccc(Cl)c1)N(c1ccccc1Cl)S(C)(=O)=O (racemic) |  | 3.3 |  |  | 
7 | O=C(Nc1cccc(Cl)c1)[C@@H]1CCc2ccccc2N1S(=O)(=O)c1ccccc1F | 78 | 6.7 |  |  | 
8 | O=S(=O)(c1ccc(F)cc1)N1CCC[C@H](c2nc(-c3ccc(F)cc3)no2)C1 | 84 | 3.4 | > 10 | 43 | Activity [5]: inactive
9 | CCCC(C(=O)Nc1cccc(Cl)c1)N(c1ccccc1Cl)S(C)(=O)=O (racemic) |  | > 10 |  |  | 
10 | CC(C(=O)Nc1cccc(Cl)c1)N(c1ccccc1Cl)S(C)(=O)=O (racemic) | 43 | 0.068 |  |  | 
11 | CS(=O)(=O)N(CC(=O)Nc1ccccc1)c1ccccc1Cl | 61 | 0.07 | 1.38 | 77 | Fu (Plasma [2]): 0.13; Activity [8]: > 10 µM; Activity [9]: > 10 µM; Stability (Liver microsomes): <= 4%; Activity [10]: > 10 µM; Activity [11]: > 10 µM; Activity [12]: > 10 µM; Ki [13]: > 10 µM; Activity [14]: > 10 µM
12 | CS(=O)(=O)N(CC(=O)Nc1cccc(Cl)c1)c1ccccc1Cl | 74 | 0.08 | 0.78 | 63 | Activity [8]: > 10 µM; Activity [15]: > 10 µM; Activity [9]: > 10 µM; Activity [10]: > 10 µM; Activity [11]: > 10 µM; Activity [12]: > 10 µM; Ki [13]: > 10 µM; Ratio EC50 (HEK293): 10; Activity [14]: > 10 µM
13 | CS(=O)(=O)N(CC(=O)Nc1cccnc1F)c1ccccc1Cl | 64 | 1.74 | > 10 | 42 | pEC50 ([6]; hek293): < 5
14 | CS(=O)(=O)N(CC(=O)Nc1ccc(F)nc1)c1ccccc1Cl | 72 | 4.47 | > 10 | 35 | pEC50 ([6]; hek293): < 5
15 | CS(=O)(=O)N(CC(=O)NCC1CC1)c1cc(C(F)(F)F)ccc1Cl | 61 | 0.398 | 4.5 | 70 | fraction unbound at 4 h, 5 µM [16]: 0.13; Activity [8]: > 10 µM; Activity [15]: > 10 µM; IC50 [17]: > 10 µM; Activity [9]: > 10 µM; IC50 [18]: > 10 µM; Activity [10]: > 10 µM; Kp [19]: 0.4; Activity [11]: > 10 µM; fraction unbound at 4 h, 5 µM [20]: 0.1; IC50 [21]: > 10 µM; Activity [12]: > 10 µM; Ki [13]: > 30 µM; Activity [14]: > 10 µM
16 | CS(=O)(=O)N1c2ccccc2CCC1C(=O)Nc1cccc(Cl)c1 (racemic) | 60 | 1 |  |  | 
17 | O=S(=O)(c1ccc(C#Cc2cccc(F)c2)cc1)N1CCOCC1 | 55 | 0.457 |  |  | Activity [5]: inactive; EC50 ([6]; hek293): Not Active

Source: ChEMBL document CHEMBL2203047, “Discovery and SAR of a novel series of non-MPEP site mGlu₅ PAMs based on an aryl glycine sulfonamide scaffold” (Bioorg Med Chem Lett, 2012)
